“Also recorded” adds a separate entry of the source. *1 amine or outer side, *2 acyl side, *3 side chain or, on linkers, in order; H or OH if unused. Where a SMILES comes first, the peptide text is derived from it. [ ]: non-standard residue; d: D form. X1 = CC(=N)NCCCC[C@H](N[*:1])C(=O)[*:2]
What was measured:
[1] = prior studies (Leach et al., 2019); cited from earlier work
[2] = Live-dead viability of RAW 264.7 cells on MDP hydrogels; assay type: cell-based, mouse; conditions: mouse, RAW 264.7 cells cultured on peptide hydrogel (2-D culture); RAW macrophages on 1 wt. % hydrogel, after three days; read-out: cell survival
Method: (§1) Cell culture. For in vitro experiments, mouse RAW 264.7 cells (ATCC TIB-71) were grown in DMEM media supplemented with 10% Heat-Inactivated Fetal Bovine Serum (HI-FBS), L-glutamine, sodium pyruvate, and 1% penicillin-streptomycin. Cells were cultured at 37° C. with 5% CO2 and subcultured using scraping.
(§2) For 2-D culture live-dead viability studies, peptide hydrogels were pipetted into 0.4 cm^2 wells of Lab-Tek 16 well glass chamber slides (Thermo Fischer, Rochester, NY). Gels were pipetted to produce 70 μL pucks with a thickness of 1.75 mm. The gels were carefully pipetted into the bottom of each well and tapped before shear recovery to create flat gel profiles. After pipetting, the samples were allowed to shear recover for 5-10 min before adding 200 μL cell media and 10,000 RAW 264.7 cells. For each experiment time point (days 1 and 3) separate slides with duplicate gels were created. The cell media was changed every 2 days, taking care to not disturb or dislodge the gel material.
(§3) At each desired time point the following procedure was used to stain the cells for live-dead analysis. Live-dead staining solution was prepared in DPBS (Thermo Fisher Scientific, Rockford, IL) with 2 μM Calcein AM (Life Technologies), 4 μM Ethidium homodimer (Life Technologies), and 5 μg/mL Hoechst 33342 (BD Biosciences, San Jose, CA). Cell media was removed from the top of the hydrogel samples, which were then washed with PBS. Samples were then stained with 100 μL of prepared solution by incubating at 37° C. with 5% CO2 for 60 min while protected from light. After staining, the gels were removed from the glass chamber slides and placed in PBS before immediately imaging by confocal. Gels were analyzed by z-stack imaging using a Nikon A1 Confocal Microscope with a 40× water objective (405 nm blue channel laser, 488 nm green channel laser, 561 nm red channel laser). Image processing was done using NIS Elements, and Imaris Cell Counting software was used to quantify live-dead percentages.

[3] = tested on: RAW 264.7 cells; assay: as above; assay type: cell-based, mouse; conditions: RAW macrophages on 1 wt. % hydrogel, one to three days
Method: as §1, §2, §3

[4] = tested on: VEGF; assay: Serum VEGF ELISA in mice bearing B16-F0 melanoma tumors; assay type: in vivo; conditions: 5 days after single 100 μL intratumoral injection
Method: Evaluation of in vivo VEGF reduction using murine B16-F0 melanoma tumor model. C57BL/6J male mice were purchased from The Jackson Laboratory. […] All experiments were performed with approval of IACUC at Baylor College of Medicine (BCM) and followed established protocols. B16-F0 melanoma cell line was purchased from American Type Culture Collection (ATCC) and maintained according to manufacturer instructions (DMEM high-glucose with 10% fetal bovine serum and 1% penicillin/streptomycin). C57BL/6J mice were injected subcutaneously (s.c.) with 3×10^5 B16-F0 cells in a single flank. Once tumors became palpable (day 7 post-inoculation) mice were injected intratumorally (i.t.) with either vehicle buffer control Hank's Balanced Salt Solution (HBSS), free L-NIL dissolved in HBSS at 20 mM, K2-MDP hydrogel at 1 wt. % (5.6 mM peptide), or L-NIL-MDP hydrogel at 1 wt. % (5.2 mM peptide, or approximately 20 mM L-NIL functional groups). All injections were done using 100 μL total injection volume.
Mice were euthanized 5 days following i.t. injections and tumor/blood were collected. […] VEGF quantification of undiluted serum was performed using a mouse VEGF Quantikine ELISA kit (R&D Systems, Minneapolis, MN) following manufacturer's instructions. […] Statistical differences were evaluated using Tukey's multiple comparisons test. […]

## CC(=N)NCCCC[C@H](NC(=O)[C@H](CCCCNC(C)=N)NC(=O)[C@H](CC(C)C)NC(=O)[C@H](CO)NC(=O)[C@H](CC(C)C)NC(=O)[C@H](CO)NC(=O)[C@H](CC(C)C)NC(=O)[C@H](CO)NC(=O)[C@H](CC(C)C)NC(=O)[C@H](CO)NC(=O)[C@H](CC(C)C)NC(=O)[C@H](CO)NC(=O)[C@H](CC(C)C)NC(=O)[C@H](CO)NC(=O)[C@H](CCCCNC(C)=N)NC(=O)[C@H](CCCCNC(C)=N)NC(C)=O)C(N)=O [L-NIL-MDP] (Ac-[X1][X1]SLSLSLSLSLSL[X1][X1]-NH2)
[1]
  hydrogel observable post injection: 21 days
[2]
  viability at 72 h, 1 wt. %: ~95%
[3]
  cell attachment, survival and proliferation (in words): highest degrees of cell attachment and proliferation
[4]
  reduction of systemic VEGF levels (in words): significantly reduced systemic VEGF levels; also recorded: Significant VEGF reduction

From patent US12251449B2, “Synthetic multidomain peptide biomaterials that inhibit inducible nitric oxide synthase” (William Marsh Rice University, priority 2019, dated 2025)
